test system: H1299, H1650 and MCF-7 cells; assay: BrdU proliferation assay, statements for all three cell lines; assay type: cell-based, human; settings: 5 μM cisplatin, 5 μM paclitaxel or 10 μM gefitinib
Method: FIGS. 5A-5C show the combined effect of chemotherapeutic drugs and Glut-1 antibody on cell proliferation. H1299 (FIG. 5A), H1650 (FIG. 5B), and MCF-7 (FIG. 5C) cells were grown on chamber slides as described above and treated either with cisplatin, paclitaxel or iressa in presence or absence of Glut-1 antibody (0.1 mg) for 18 hours. The proliferation was measured by BrdU incorporation.
MCF-7, H1299 and H1650 cells were plated onto poly-D-lysine (Sigma) coated 8-well glass chamber slides (10,000 cells per well). The cells were incubated with 0.1 mg/ml Glut-1 monoclonal antibody for 18 hours. The cells were fixed and stained using 5-Bromo-2′ deoxyuridine labeling and detection kit from ROCHE according to manufacturer's protocol.
Experiments were done to evaluate whether anti-Glut-1 antibody could synergize with standard chemotherapeutic agents to inhibit proliferation of H1299, H1650 and MCF-7. The cells were plated on chamber slides and incubated in presence of chemotherapeutic agents (5 μM cisplatin, 5 μM paclitaxel or 10 μM geftinib) in absence or presence of 0.1 mg/ml anti-Glut-1 antibody.

Structure (SMILES)	effect of drug alone on proliferation
N.N.[Cl][Pt][Cl] [cisplatin]	significant decrease in proliferation
CC(=O)O[C@H]1C(=O)[C@@]2(C)[C@H]([C@H](OC(=O)c3ccccc3)[C@]3(O)C[C@H](OC(=O)[C@H](O)[C@@H](NC(=O)c4ccccc4)c4ccccc4)C(C)=C1C3(C)C)[C@]1(OC(C)=O)CO[C@@H]1C[C@@H]2O [paclitaxel]	significant decrease in proliferation
COc1cc2ncnc(Nc3ccc(F)c(Cl)c3)c2cc1OCCCN1CCOCC1 [gefitinib]	significant decrease in proliferation
